{
  "source": "patent US20220387434A1",
  "about": "“COMBINATION OF A BTK INHIBITOR AND AN MDM2 INHIBITOR FOR CANCER TREATMENT” (QUOGUE IP HOLDINGS LLC, priority 2019, published 2022)",
  "origin": "cited, not measured here",
  "test_system": "lymphocytes",
  "conditions": "Ibr versus Veh (FIG. 3)",
  "data": [
    {"smiles": "C=CC(=O)N1CCC[C@@H](n2nc(-c3ccc(Oc4ccccc4)cc3)c3c(N)ncnc32)C1", "note": "[Ibrutinib, 1-[(3R)-3-[4-amino-3-(4-phenoxyphenyl)pyrazolo[3,4-d]pyrimidin-1-yl]piperidin-1-yl]prop-2-en-1-one]", "values": [
      {"measurement": "mobilization of lymphocytes into the peripheral circulation", "value": "mobilization"}
    ]}
  ]
}
